Reference: patent publication US6410054B1, “Immediate release eplerenone compositions” (G. D. Searle & Co., priority 1998, dated 2002)

What was measured:
[1] = Effect of food study: plasma pharmacokinetics fasted vs high-fat breakfast; format: in vivo, humans; details: for Plasma Concentration: 100 mg eplerenone capsule
Method: An open-label randomized, cross-over study was employed to evaluate the pharmacokinetic profiles of eplerenone under fasted and fed conditions, and the safety and tolerability of eplerenone. Safety was assessed based on adverse events, vital signs and clinical laboratory tests. Twelve healthy male subjects were randomized to receive a single 100 mg dose of eplerenone on days 1 and 8 under (i) fasted conditions, or (ii) immediately following a high-fat breakfast. The subjects were orally administered (dosed) a single 100 mg dose of eplerenone in the form of the capsule described in Example 7, together with approximately 200 to 240 mL of water at 0800 hours on days 1 and 8. Subjects randomized to receive a high-fat breakfast were to completely ingest the meal within 20 minutes prior to dosing. The high-fat meal contained approximately 33 g protein, 75 g fat, 58 g carbohydrates and 1000 calories. […] All adverse events were mild in severity.

[2] = Single dose study: plasma pharmacokinetics of eplerenone, open lactone ring form, spironolactone; details: open ring lactone in plasma
Method: The pharmacokinetics, safety and antialdosterone activity of single 10, 50, 100, 300 and 1000 mg oral doses of eplerenone were evaluated in a single-center, randomized, double-blind, placebo-controlled study.
The study employed seven parallel dose groups of eight healthy male humans.
The eplerenone capsules administered corresponded to the capsules (or combinations of the capsules) disclosed in Examples 4, 5, 7 and 8 above. The placebo was a conventional capsule containing lactose. […] The fludrocortisone used in the study consisted of commercially available fludrocortisone tablets (Florinef®, Squibb BV).
The subjects, who underwent a ten hour food fast prior to administration of the dose, received a single oral dose of one of the study medications together with about 180 mL of water at 0800 hours. […] Each dose of fludrocortisone was administered with 150 mL of water except for the 1.0 mg dose which was administered with 200 mL of water.
The plasma samples collected from subjects dosed with eplerenone were assayed for concentrations of eplerenone and the open lactone ring form of eplerenone. […] A subset of plasma samples was also assayed for testosterone levels. The urine collected was analyzed to determine concentrations and amounts of eplerenone and the open lactone ring form of eplerenone, the amount of sodium and potassium excreted, and the urinary log10 (sodium/potassium) ratio.

[3] = Multiple dose study: plasma pharmacokinetics and urinary excretion; format: in vivo, humans
Method: Multiple oral dose tolerability and the pharmacokinetics of several dosages of eplerenone were evaluated in a double-blind, randomized, placebo-controlled, rising oral dose, sequential panel study of 40 healthy male subjects (five groups of eight subjects). The study medication was administered in […] sequential dose panels, with each panel including eplerenone, spironolactone and placebo. […] The 100 mg and 200 mg dose capsules corresponded to those described in Examples 7 and 8, respectively. Following a 48-hour interval, the study drug was administered once a day for 11 days. Antialdosterone activity was determined following a fludrocortisone challenge on Days 12-13.

effect of high-fat meal on AUC0-96 ([1]; 100 mg capsule, fed vs fasted): minimal or no measurable effect
effect of high-fat meal on Cmax ([1]; 100 mg capsule, fed vs fasted): reduction
effect of high-fat meal on Tmax ([1]; 100 mg capsule, fed vs fasted): increase
effect of high-fat meal on T½ ([1]; 100 mg capsule, fed vs fasted): minimal or no measurable effect
Plasma Concentration ([1]; Fasted Conditions, 0.5 hours after dosing): 69.163 ng/mL
Plasma Concentration ([1]; Fasted Conditions, 1.0 hours after dosing): 91.208 ng/mL
Plasma Concentration ([1]; Fasted Conditions, 2.0 hours after dosing): 70.600 ng/mL
Plasma Concentration ([1]; Fasted Conditions, 3.0 hours after dosing): 58.833 ng/mL
Plasma Concentration ([1]; Fasted Conditions, 4.0 hours after dosing): 45.042 ng/mL
Plasma Concentration ([1]; Fasted Conditions, 6.0 hours after dosing): 31.773 ng/mL
Plasma Concentration ([1]; Fasted Conditions, 8.0 hours after dosing): 18.708 ng/mL
Plasma Concentration ([1]; Fasted Conditions, 28.0 hours after dosing): 0 ng/mL
Plasma Concentration ([1]; Fasted Conditions, 48.0 hours after dosing): 0 ng/mL
Plasma Concentration ([1]; Fasted Conditions, 72.0 hours after dosing): 0 ng/mL
Plasma Concentration ([1]; Fasted Conditions, −0.5 hours after dosing): 0 ng/mL
Plasma Concentration ([1]; High Fat Breakfast, 0.5 hours after dosing): 2.300 ng/mL
Plasma Concentration ([1]; High Fat Breakfast, 1.0 hours after dosing): 17.392 ng/mL
Plasma Concentration ([1]; High Fat Breakfast, 2.0 hours after dosing): 36.964 ng/mL
Plasma Concentration ([1]; High Fat Breakfast, 3.0 hours after dosing): 56.742 ng/mL
Plasma Concentration ([1]; High Fat Breakfast, 4.0 hours after dosing): 66.817 ng/mL
Plasma Concentration ([1]; High Fat Breakfast, 6.0 hours after dosing): 51.675 ng/mL
Plasma Concentration ([1]; High Fat Breakfast, 8.0 hours after dosing): 30.950 ng/mL
Plasma Concentration ([1]; High Fat Breakfast, 28.0 hours after dosing): 0 ng/mL
Plasma Concentration ([1]; High Fat Breakfast, 48.0 hours after dosing): 0 ng/mL
Plasma Concentration ([1]; High Fat Breakfast, 72.0 hours after dosing): 0 ng/mL
Plasma Concentration ([1]; High Fat Breakfast, −0.5 hours after dosing): 0 ng/mL
AUC(0-96) ([2]; 50 mg Epl. single oral dose): 142.8 (ng/mL) hr
Mean Residence Time ([2]; 50 mg Epl. single oral dose): 2.8 h
Oral Clearance ([2]; 50 mg Epl. single oral dose): 491.3 L/h
T1/2 ([2]; 50 mg Epl. single oral dose): 2.7 h
Tmax ([2]; 50 mg Epl. single oral dose): 1.0 h
AUC(0-96) ([2]; 100 mg Epl. single oral dose): 246.8 (ng/mL) hr
Mean Residence Time ([2]; 100 mg Epl. single oral dose): 3.3 h
Oral Clearance ([2]; 100 mg Epl. single oral dose): 445.2 L/h
T1/2 ([2]; 100 mg Epl. single oral dose): 2.7 h
Tmax ([2]; 100 mg Epl. single oral dose): 1.1 h
AUC(0-96) ([2]; 300 mg Epl. single oral dose): 1065.1 (ng/mL) hr
Mean Residence Time ([2]; 300 mg Epl. single oral dose): 4.2 h
Oral Clearance ([2]; 300 mg Epl. single oral dose): 299.8 L/h
T1/2 ([2]; 300 mg Epl. single oral dose): 2.8 h
Tmax ([2]; 300 mg Epl. single oral dose): 1.3 h
AUC(0-96) ([2]; 1000 mg Epl. single oral dose): 3483.5 (ng/mL) hr
Mean Residence Time ([2]; 1000 mg Epl. single oral dose): 5.7 h
Oral Clearance ([2]; 1000 mg Epl. single oral dose): 330.7 L/h
T1/2 ([2]; 1000 mg Epl. single oral dose): 2.6 h
Tmax ([2]; 1000 mg Epl. single oral dose): 2.5 h
dose proportionality of plasma concentrations and dose-adjusted AUC ([3]; 100 mg to 1000 mg, single or multiple doses): consistent with dose proportionality
SMILES: COC(=O)C1CC2=CC(=O)CCC2(C)C23OC2CC2(C)C(CCC2(O)CCC(=O)O)C13 (stereo not drawn) [Open Ring Lactone]
accumulation ([3]; once a day for 11 days): no significant or dose-related accumulation
